Reference: ChEMBL document CHEMBL5463729, “Data for DCP probe BAY 1753011” (2023)

Assays:
[1] = biological target: T1, Alpha-1A adrenergic receptor (Homo sapiens) (UniProt P35348); test: Inhibition of Adrenergic alpha1A at compound concentration of 10.0 uM in the Eurofins-Panlabs radioligand binding assay (Eurofins_assay_203110); set-up: ligand concentration 0.25 nM; conditions: Rattus norvegicus; Compound concentration 10.0 uM
T1 sequence (whole entry): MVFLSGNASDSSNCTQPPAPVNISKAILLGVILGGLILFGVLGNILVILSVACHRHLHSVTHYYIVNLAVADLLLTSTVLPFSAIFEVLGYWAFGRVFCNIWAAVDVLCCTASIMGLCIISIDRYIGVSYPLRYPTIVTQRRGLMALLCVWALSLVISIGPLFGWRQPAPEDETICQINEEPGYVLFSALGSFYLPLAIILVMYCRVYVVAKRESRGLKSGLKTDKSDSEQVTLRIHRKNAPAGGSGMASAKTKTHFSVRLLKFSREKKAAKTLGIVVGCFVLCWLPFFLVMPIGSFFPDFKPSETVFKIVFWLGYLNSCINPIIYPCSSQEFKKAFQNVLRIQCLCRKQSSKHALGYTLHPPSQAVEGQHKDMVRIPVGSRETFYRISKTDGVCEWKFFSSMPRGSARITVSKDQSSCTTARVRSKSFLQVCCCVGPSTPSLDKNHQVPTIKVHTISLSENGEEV

[2] = biological target: Insulin-like growth factor 1 receptor (Homo sapiens) (UniProt P08069); test: Inhibition of IGF-1R(h) at 10.0 µM in the Eurofins Kinase panel; conditions: Compound concentration 10.0 uM
Sequence of Insulin-like growth factor 1 receptor (Homo sapiens) (P08069 31-736 limits assumed): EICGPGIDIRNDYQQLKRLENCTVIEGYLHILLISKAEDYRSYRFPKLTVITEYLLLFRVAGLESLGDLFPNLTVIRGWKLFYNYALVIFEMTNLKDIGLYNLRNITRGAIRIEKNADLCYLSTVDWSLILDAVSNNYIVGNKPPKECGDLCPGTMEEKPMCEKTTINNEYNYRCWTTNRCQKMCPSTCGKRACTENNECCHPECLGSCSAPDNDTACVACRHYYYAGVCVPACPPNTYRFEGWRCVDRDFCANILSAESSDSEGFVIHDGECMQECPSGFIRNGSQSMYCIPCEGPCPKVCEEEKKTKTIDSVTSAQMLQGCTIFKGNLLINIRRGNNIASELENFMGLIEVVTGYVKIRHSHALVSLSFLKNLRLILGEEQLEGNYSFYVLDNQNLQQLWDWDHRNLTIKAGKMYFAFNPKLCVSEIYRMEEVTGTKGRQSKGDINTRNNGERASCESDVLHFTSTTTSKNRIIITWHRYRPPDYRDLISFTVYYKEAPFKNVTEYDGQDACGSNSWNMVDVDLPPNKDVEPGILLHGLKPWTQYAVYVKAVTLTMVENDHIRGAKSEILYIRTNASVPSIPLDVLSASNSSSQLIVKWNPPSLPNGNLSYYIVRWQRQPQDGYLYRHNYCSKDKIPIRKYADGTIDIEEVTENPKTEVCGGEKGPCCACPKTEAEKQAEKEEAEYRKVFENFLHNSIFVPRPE
Sequence of Insulin-like growth factor 1 receptor (Homo sapiens) (P08069 741-1367 limits assumed): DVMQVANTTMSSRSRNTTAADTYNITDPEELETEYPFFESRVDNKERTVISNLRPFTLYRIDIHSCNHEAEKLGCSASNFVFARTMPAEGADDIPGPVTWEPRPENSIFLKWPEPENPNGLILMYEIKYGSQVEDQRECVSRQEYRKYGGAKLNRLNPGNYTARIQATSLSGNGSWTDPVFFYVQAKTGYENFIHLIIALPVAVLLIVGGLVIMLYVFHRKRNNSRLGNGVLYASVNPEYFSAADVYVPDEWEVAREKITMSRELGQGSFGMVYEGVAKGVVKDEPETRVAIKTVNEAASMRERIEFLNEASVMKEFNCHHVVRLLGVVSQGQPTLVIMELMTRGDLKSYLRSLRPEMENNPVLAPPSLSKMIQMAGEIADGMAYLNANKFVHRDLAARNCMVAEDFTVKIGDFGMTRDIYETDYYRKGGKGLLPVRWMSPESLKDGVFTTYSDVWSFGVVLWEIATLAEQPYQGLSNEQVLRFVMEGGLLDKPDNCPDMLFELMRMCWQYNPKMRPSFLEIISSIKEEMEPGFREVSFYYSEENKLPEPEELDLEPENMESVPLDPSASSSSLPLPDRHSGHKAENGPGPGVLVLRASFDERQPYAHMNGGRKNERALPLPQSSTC

[3] = biological target: [Pyruvate dehydrogenase (acetyl-transferring)] kinase isozyme 2, mitochondrial (Homo sapiens) (UniProt Q15119); test: Inhibition of PDHK2(h) at 10.0 µM in the Eurofins Kinase panel; conditions: Compound concentration 10.0 uM
[4] = biological target: Serine/threonine-protein kinase Sgk2 (Homo sapiens) (UniProt Q9HBY8); test: Inhibition of SGK2(h) at 10.0 µM in the Eurofins Kinase panel; conditions: Compound concentration 10.0 uM
Sequence of Serine/threonine-protein kinase Sgk2 (Homo sapiens) (Q9HBY8 whole entry): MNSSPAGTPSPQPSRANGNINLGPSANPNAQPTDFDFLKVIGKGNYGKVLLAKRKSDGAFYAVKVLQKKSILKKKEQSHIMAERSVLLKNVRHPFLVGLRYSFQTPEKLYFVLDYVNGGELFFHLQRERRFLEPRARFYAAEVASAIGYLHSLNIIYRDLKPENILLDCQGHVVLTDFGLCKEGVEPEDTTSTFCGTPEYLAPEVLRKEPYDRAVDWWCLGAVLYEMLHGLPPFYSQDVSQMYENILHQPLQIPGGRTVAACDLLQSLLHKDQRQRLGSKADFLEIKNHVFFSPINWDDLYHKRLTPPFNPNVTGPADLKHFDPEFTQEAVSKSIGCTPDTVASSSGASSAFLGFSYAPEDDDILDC

[5] = biological target: Histamine H2 receptor (Homo sapiens) (UniProt P25021); conditions: Compound concentration 10.0 uM
Sequence of Histamine H2 receptor (Homo sapiens) (P25021 whole entry): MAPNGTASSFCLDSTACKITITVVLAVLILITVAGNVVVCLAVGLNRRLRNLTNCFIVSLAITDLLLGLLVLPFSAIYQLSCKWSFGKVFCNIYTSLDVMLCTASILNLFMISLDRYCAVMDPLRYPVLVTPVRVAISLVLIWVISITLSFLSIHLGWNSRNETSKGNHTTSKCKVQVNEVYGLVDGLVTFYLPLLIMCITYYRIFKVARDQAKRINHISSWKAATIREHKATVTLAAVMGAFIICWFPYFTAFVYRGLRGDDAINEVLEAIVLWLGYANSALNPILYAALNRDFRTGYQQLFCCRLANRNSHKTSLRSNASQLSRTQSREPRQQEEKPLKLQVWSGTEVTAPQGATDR

[6] = biological target: Type-1 angiotensin II receptor (Homo sapiens) (UniProt P30556); conditions: Compound concentration 10.0 uM
Homo sapiens [7] = species: Homo sapiens; conditions: Compound concentration 10.0 uM
[8] = biological target: Growth hormone secretagogue receptor type 1 (Homo sapiens) (UniProt Q92847); conditions: Compound concentration 10.0 uM
Sequence of Growth hormone secretagogue receptor type 1 (Homo sapiens) (Q92847 whole entry): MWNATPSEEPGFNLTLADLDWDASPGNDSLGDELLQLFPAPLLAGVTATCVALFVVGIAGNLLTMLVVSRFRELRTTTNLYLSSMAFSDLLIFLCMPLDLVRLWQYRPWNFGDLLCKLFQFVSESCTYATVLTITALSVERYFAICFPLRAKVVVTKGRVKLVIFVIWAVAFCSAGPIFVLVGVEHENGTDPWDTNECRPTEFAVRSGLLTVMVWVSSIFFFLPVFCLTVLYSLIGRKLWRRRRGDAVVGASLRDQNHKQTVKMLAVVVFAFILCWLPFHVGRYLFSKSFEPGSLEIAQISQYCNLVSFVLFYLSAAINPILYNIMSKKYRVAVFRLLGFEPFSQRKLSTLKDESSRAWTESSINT

[9] = biological target: GABA-A receptor; anion channel (Rattus norvegicus) (UniProt O09028+P15431+P18506+P18508+P19969+P20236+P23574+P23576+P28471+P28473+P30191+P62813+P63079+P63138+Q91ZM7+Q9ES14); test: Inhibition of GABAA, Muscimol, Central at 10 µM in the Eurofins-Panlabs radioligand binding assay (Eurofins_assay_226500); format: protein-complex assay; conditions: Compound concentration 10.0 uM
[10] = biological target: Glutamate receptor ionotropic, kainate (Rattus norvegicus) (UniProt P22756+Q01812+P42260+P42264+Q63273); test: Inhibition of Glutamate, Kainate at 10 µM in the Eurofins-Panlabs radioligand binding assay (Eurofins_assay_232700); conditions: Compound concentration 10.0 uM
Rattus norvegicus [11] = species: Rattus norvegicus; test: Inhibition of Glutamate, NMDA, Phencyclidine at 10 µM in the Eurofins-Panlabs radioligand binding assay (Eurofins_assay_233000); format: protein-complex assay; conditions: Compound concentration 10.0 uM
[12] = biological target: Neuropeptide Y receptor type 2 (Homo sapiens) (UniProt P49146); test: Inhibition of Neuropeptide Y Y2 at 10 µM in the Eurofins-Panlabs radioligand binding assay (Eurofins_assay_257110); conditions: Compound concentration 10.0 uM
Sequence of Neuropeptide Y receptor type 2 (Homo sapiens) (P49146 whole entry): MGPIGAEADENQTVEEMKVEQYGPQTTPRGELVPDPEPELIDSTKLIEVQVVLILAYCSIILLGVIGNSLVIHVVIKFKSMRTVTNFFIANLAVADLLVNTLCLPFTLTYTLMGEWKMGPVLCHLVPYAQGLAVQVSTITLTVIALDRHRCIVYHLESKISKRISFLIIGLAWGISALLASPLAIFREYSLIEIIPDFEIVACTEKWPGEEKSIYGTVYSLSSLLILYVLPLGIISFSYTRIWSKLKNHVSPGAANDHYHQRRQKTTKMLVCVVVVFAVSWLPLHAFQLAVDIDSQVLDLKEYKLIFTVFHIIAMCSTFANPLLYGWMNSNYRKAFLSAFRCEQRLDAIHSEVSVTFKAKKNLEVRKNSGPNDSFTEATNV

Homo sapiens [13] = species: Homo sapiens; test: Inhibition of Nicotinic Acetylcholine at compound concentration of 10.0 uM in the Eurofins-Panlabs radioligand binding assay (Eurofins_assay_258590); format: protein-complex assay; conditions: Compound concentration 10.0 uM
[14] = biological target: Prostaglandin E2 receptor EP4 subtype (Homo sapiens) (UniProt P35408); test: Inhibition of Prostanoid EP4 at 10 µM in the Eurofins-Panlabs radioligand binding assay (Eurofins_assay_268420); set-up: ligand concentration 1 nM; conditions: Compound concentration 10.0 uM
Sus scrofa = species: Sus scrofa; test: Inhibition of ATPase, Na+/K+, Heart at compound concentration of 10.0 uM in the Eurofins-Panlabs enzyme assay (Eurofins_assay_107710); set-up: substrate with concentration; conditions: Compound concentration 10.0 uM
[15] = biological target: Carbonic anhydrase 2 (Homo sapiens) (UniProt P00918); test: Inhibition of Carbonic Anhydrase II at compound concentration of 10.0 uM in the Eurofins-Panlabs enzyme assay (Eurofins_assay_112020); set-up: substrate with concentration; conditions: Compound concentration 10.0 uM
[16] = biological target: Epidermal growth factor receptor (Homo sapiens) (UniProt P00533); test: Inhibition of Protein Tyrosine Kinase, EGF Receptor at 10 µM in the Eurofins-Panlabs enzyme assay (Eurofins_assay_170020); set-up: substrate with concentration; conditions: Compound concentration 10.0 uM
[17] = biological target: Calcitonin receptor (Homo sapiens) (UniProt P30988); test: Inhibition of Calcitonin at 10 µM in the Eurofins-Panlabs radioligand binding assay (Eurofins_assay_213610); conditions: Compound concentration 10.0 uM
Sequence of Calcitonin receptor (Homo sapiens) (P30988 whole entry): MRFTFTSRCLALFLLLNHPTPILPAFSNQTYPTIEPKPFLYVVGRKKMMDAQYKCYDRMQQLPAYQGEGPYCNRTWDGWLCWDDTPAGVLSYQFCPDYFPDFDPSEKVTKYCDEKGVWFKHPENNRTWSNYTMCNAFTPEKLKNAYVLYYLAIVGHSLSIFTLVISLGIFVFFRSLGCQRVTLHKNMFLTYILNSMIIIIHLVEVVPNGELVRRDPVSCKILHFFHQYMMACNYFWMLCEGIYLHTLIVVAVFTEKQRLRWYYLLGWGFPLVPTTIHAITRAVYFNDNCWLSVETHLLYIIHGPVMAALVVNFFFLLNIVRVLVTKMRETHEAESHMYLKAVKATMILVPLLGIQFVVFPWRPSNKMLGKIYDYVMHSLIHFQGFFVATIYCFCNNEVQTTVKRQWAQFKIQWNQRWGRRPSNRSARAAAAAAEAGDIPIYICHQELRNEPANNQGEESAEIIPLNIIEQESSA

Rattus norvegicus [18] = species: Rattus norvegicus; test: Inhibition of Glycine, Strychnine-Sensitive at 10 µM in the Eurofins-Panlabs radioligand binding assay (Eurofins_assay_239000); conditions: Compound concentration 10.0 uM
[19] = Inhibition of Platelet-Derived Growth Factor (PDGF) at 10 µM in the Eurofins-Panlabs radioligand binding assay (Eurofins_assay_265200); conditions: Compound concentration 10 uM; Detection method Radioligand Binding; Incubation temperature 25 °C; Incubation time 45 min; Ligand [3H]PDGF; Ligand concentration 0.02 nM; Non-specific ligand with concentration 10 nM PDGF; Source of protein Swiss mouse 3T3 embryo cells
[20] = biological target: 5-hydroxytryptamine receptor 4 (Homo sapiens) (UniProt Q13639); test: Inhibition of Serotonin (5-Hydroxytryptamine) 5-HT4 at 10 µM in the Eurofins-Panlabs radioligand binding assay (Eurofins_assay_272000); conditions: Cavia porcellus; Compound concentration 10.0 uM
Sequence of 5-hydroxytryptamine receptor 4 (Homo sapiens) (Q13639 whole entry): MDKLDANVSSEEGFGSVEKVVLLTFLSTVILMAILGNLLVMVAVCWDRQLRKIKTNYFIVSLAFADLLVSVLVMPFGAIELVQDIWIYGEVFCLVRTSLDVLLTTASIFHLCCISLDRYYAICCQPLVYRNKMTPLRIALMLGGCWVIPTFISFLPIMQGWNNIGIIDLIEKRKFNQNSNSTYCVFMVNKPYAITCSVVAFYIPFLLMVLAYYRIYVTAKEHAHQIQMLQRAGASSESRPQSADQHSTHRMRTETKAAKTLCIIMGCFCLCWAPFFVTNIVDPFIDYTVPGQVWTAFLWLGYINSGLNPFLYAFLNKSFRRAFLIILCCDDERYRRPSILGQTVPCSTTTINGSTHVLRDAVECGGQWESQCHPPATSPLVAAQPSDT

[21] = biological target: 5-hydroxytryptamine receptor 6 (Homo sapiens) (UniProt P50406); test: Inhibition of Serotonin (5-Hydroxytryptamine) 5-HT6 at 10 µM in the Eurofins-Panlabs radioligand binding assay (Eurofins_assay_272200); conditions: Compound concentration 10.0 uM
[22] = biological target: Sigma intracellular receptor 2 (Homo sapiens) (UniProt Q5BJF2); test: Inhibition of Sigma 2 at 10 µM in the Eurofins-Panlabs radioligand binding assay (Eurofins_assay_278200); set-up: ligand concentration 3 nM; conditions: Rattus norvegicus; Compound concentration 10.0 uM
Sequence of Sigma intracellular receptor 2 (Homo sapiens) (Q5BJF2 whole entry): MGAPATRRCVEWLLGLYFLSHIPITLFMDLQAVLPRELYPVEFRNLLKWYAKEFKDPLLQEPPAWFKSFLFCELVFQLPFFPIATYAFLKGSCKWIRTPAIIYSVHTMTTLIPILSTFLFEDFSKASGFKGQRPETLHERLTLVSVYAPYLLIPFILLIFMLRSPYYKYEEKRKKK

[23] = biological target: Vascular endothelial growth factor receptor 1 (Homo sapiens) (UniProt P17948); test: Inhibition of Flt1(h) at 10.0 µM in the Eurofins Kinase panel; conditions: Compound concentration 10.0 uM
[24] = biological target: RAC-alpha serine/threonine-protein kinase (Homo sapiens) (UniProt P31749); test: Inhibition of PKBalpha(h) at 10.0 µM in the Eurofins Kinase panel; conditions: Compound concentration 10.0 uM
Sequence of RAC-alpha serine/threonine-protein kinase (Homo sapiens) (P31749 whole entry): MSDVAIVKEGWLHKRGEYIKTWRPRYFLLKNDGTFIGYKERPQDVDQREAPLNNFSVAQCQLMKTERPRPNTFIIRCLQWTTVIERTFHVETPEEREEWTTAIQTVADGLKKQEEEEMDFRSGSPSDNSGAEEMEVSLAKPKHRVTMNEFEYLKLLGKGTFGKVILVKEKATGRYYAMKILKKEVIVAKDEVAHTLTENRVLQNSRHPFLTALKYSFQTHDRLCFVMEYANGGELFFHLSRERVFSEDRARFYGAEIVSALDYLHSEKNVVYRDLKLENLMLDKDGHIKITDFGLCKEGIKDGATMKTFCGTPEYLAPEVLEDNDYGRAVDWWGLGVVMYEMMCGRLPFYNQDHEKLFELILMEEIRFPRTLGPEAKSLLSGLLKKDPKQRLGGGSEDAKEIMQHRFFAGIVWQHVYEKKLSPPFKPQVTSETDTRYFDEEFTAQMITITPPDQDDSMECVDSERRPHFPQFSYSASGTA

[25] = biological target: Mitogen-activated protein kinase 14 (Homo sapiens) (UniProt Q16539); test: Inhibition of SAPK2a(h) at 10.0 µM in the Eurofins Kinase panel; conditions: Compound concentration 10.0 uM
Sequence of Mitogen-activated protein kinase 14 (Homo sapiens) (Q16539 whole entry): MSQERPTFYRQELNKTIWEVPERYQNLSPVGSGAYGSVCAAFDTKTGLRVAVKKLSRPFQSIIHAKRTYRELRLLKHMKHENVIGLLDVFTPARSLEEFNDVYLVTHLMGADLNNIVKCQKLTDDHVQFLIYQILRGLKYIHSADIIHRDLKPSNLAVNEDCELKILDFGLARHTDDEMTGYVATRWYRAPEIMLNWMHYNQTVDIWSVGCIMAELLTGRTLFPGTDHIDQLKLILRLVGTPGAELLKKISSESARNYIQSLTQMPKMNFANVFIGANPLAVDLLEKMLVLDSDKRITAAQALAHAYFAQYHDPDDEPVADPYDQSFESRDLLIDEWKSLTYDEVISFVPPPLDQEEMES

[26] = biological target: Tyrosine-protein kinase SYK (Homo sapiens) (UniProt P43405); test: Inhibition of Syk(h) at 10.0 µM in the Eurofins Kinase panel; conditions: Compound concentration 10.0 uM
[27] = biological target: Purinergic P2Y (Rattus norvegicus) (UniProt O35811+Q9EPX4+P49651+Q63371+P41232+O35881+Q6GUG4); conditions: Compound concentration 10.0 uM

`O=c1n(Cc2cncn2-c2cccc(Cl)c2)nc(-c2ccc(Cl)cc2)n1C[C@H](O)C(F)(F)F` showed an inhibition [1] of 3%, an inhibition [2] of -8.87% and an inhibition [3] of -4.87%. The inhibition [4] was -3.39%, the inhibition [5] was 20% and the inhibition [6] was -6%. It also gave an inhibition (Homo sapiens [7]) of -5% and an inhibition [8] of 25%.

Work on `C[C@H](O)c1nc(Cn2nc(-c3ccc(Cl)cc3)n(C[C@H](O)C(F)(F)F)c2=O)nn1-c1cccc(Cl)c1` [PECAVAPTAN] yielded an inhibition [9] of -2%, an inhibition [10] of -4% and an inhibition (Rattus norvegicus [11]) of 14%. For the same compound, the inhibition [12] was 6%, the inhibition (Homo sapiens [13]) was -6% and the inhibition [14] was 16%. The inhibition (Sus scrofa) was 0%, the inhibition [15] was -4% and the inhibition [16] was -6%. For the same compound, the inhibition [17] was -7%, the inhibition (Rattus norvegicus [18]) was 12% and the inhibition at 10 µM [19] was 5% (not active). For the same compound, the inhibition [20] was 19%, the inhibition [21] was 4% and the inhibition [22] was 5%. For the same compound, the inhibition [23] was -9.22%, the inhibition [24] was -3.88% and the inhibition [25] was -8.61%. The inhibition [26] was -8.56% and the inhibition [27] was 0%.
